Reference: publication PMC10294832, “Investigation of Naphthyl–Polyamine Conjugates as Antimicrobials and Antibiotic Enhancers” (Antibiotics, 2023)
pIC50: −log10 of the molar value. Values after ≈ are worked out from the molar mass of the structure shown. Values joined by “and” are separate entries in the source; they are usually repeats but may differ in a detail not shown here. Equal entries are not always repeated. Where two headings read alike, the source gives them in different places.

Legend:
[1] = test system: S. aureus (ATCC 25,923 or ATCC 29213); test: Antimicrobial MIC, S. aureus; type: cell-based, Staphylococcus aureus; details: Staphylococcus aureus, mean (n = 3)
Description: (§1) The susceptibility of bacterial strains S. aureus (ATCC 25,923 or 29213), E. coli (ATCC 25922), and P. aeruginosa (ATCC 27853) to antibiotics and compounds was determined according to previously reported protocols. Additional antimicrobial evaluation against MRSA (ATCC 43300), Klebsiella pneumoniae (ATCC 700603), Acinetobacter baumannii (ATCC 19606), Candida albicans (ATCC 90028), and Cryptococcus neoformans (ATCC 208821) was undertaken at the Community for Open Antimicrobial Drug Discovery at The University of Queensland (Australia) according to their standard protocols as reported previously.

[2] = test system: MRSA (ATCC 43300); test: Antimicrobial MIC, MRSA; type: cell-based, methicillin-resistant Staphylococcus aureus; details: read-out: MIC MRSA
Description: as §1

[3] = test system: P. aeruginosa (PAO1 or ATCC 27853); test: Antimicrobial MIC, P. aeruginosa; type: cell-based; details: Pseudomonas aeruginosa
Description: as §1

[4] = test system: E. coli (ATCC 25922); test: Antimicrobial MIC, E. coli; type: cell-based, Escherichia coli; details: Escherichia coli, ATCC25922, E. coli (ATCC 25922); mean (n = 2)
Description: as §1

[5] = test system: K. pneumoniae (ATCC 700603); test: Antimicrobial MIC, K. pneumoniae; type: cell-based; details: Klebsiella pneumoniae, ATCC700603, mean (n = 2)
Description: as §1

[6] = test system: A. baumannii (ATCC 19606); test: Antimicrobial MIC, A. baumannii; type: cell-based, Acinetobacter baumannii; details: Acinetobacter baumannii, ATCC19606, A. baumannii (ATCC 19606); mean (n = 2)
Description: as §1

[7] = test system: C. albicans (ATCC 90028); test: Antifungal MIC, C. albicans; type: cell-based; details: Candida albicans, ATCC90028, mean (n = 2)
Description: as §1

[8] = test system: C. neoformans (ATCC 208821); test: Antifungal MIC, C. neoformans; type: cell-based, Cryptococcus neoformans; details: Cryptococcus neoformans, ATCC208821, C. neoformans (ATCC 208821); mean (n = 2)
Description: as §1

[9] = Cytotoxicity assay; type: cell-based, human; details: human, HEK293 human embryonic kidney cells, concentration at 50% cytotoxicity on HEK293 cells; mean (n = 2)
Description: Cytotoxicity assays were conducted using the protocols previously reported.

[10] = test system: human red blood cells; test: Hemolytic assay; type: cell-based; details: concentration at 10% hemolytic activity on human red blood cells; mean (n = 2)
Description: Hemolysis assays were conducted using the protocols previously reported.

[11] = test system: P. aeruginosa (ATCC 27853); test: Enhancement of doxycycline activity; type: cell-based, Pseudomonas aeruginosa; details: for Dox/P.a: concentration required to restore doxycycline activity (combination MIC): doxycycline fixed at 4.5 µM (2 µg/mL); for Dox/P.a: concentration required to restore doxycycline activity (combination MIC) / Concentration of test compound required to restore doxycycline activity: P. aeruginosa (ATCC 27853); for Dox/P.a fold change: ratio between intrinsic MIC of test compound and combination MIC, doxycycline 4.5 µM, P. aeruginosa
[12] = test system: E. coli (ATCC 25922); test: Enhancement of erythromycin activity; type: cell-based, Escherichia coli; details: for Eryth/E.c: concentration required to restore erythromycin activity (combination MIC): erythromycin fixed at 10.9 µM (8 µg/mL), E. coli (ATCC 25922); for Eryth/E.c fold change: ratio between intrinsic MIC of test compound and combination MIC, erythromycin 10.9 µM, E. coli
Description: Restoring enhancer concentrations were determined using previously reported protocols.

[13] = Staphylococcus aureus, MRSA (ATCC 43300), mean (n = 2)
[14] = P. aeruginosa (PAO1 or ATCC 27853), mean (n = 3), read-out: MIC P. a

| MIC [1] [µM] | MIC [2, 13] [µM] | MIC [3, 14] [µM] | MIC [4] [µM] | MIC [5] [µM] | MIC [6] [µM] | MIC [7] [µM] | MIC [8] [µM] | Dox/P.a: concentration required to restore doxycycline activity (combination MIC) [11] [µM] | Eryth/E.c: concentration required to restore erythromycin activity (combination MIC) [12] [µM] | SMILES | pIC50 [9] | Hemolysis HC10 [10] [µM] | Eryth/E.c fold change [12] [fold] | Dox/P.a fold change [11] [fold] | other results |
| --- | --- | --- | --- | --- | --- | --- | --- | --- | --- | --- | --- | --- | --- | --- | --- |
| 256 | > 41 | > 256 | 256 | > 41 | > 41 | > 41 | > 41 | 64 | 64 | O=C(NCCCNCCCCCCCNCCCNC(=O)c1cccc2ccccc12)c1cccc2ccccc12.O=C(O)C(F)(F)F.O=C(O)C(F)(F)F [Compound 17c, N^1,N^7-Bis(3-(1-naphthamido)propyl)heptane-1,7-diaminium 2,2,2-trifluoroacetate] | < 4.39 | >41.0 | 4 |  |  |
| 50 | > 40.3 | > 100 | 100 | > 40.3 | > 40.3 | > 40.3 | > 40.3 |  | 31.5 | O=C(NCCCNCCCCCCCCNCCCNC(=O)c1cccc2ccccc12)c1cccc2ccccc12.O=C(O)C(F)(F)F.O=C(O)C(F)(F)F [Compound 17d, N^1,N^8-Bis(3-(1-naphthamido)propyl)octane-1,8-diaminium 2,2,2-trifluoroacetate] | < 4.39 | >40.3 | 3 |  |  |
| 244 | 9.7 | 608 | 608 | > 38.9 | > 38.9 | > 38.9 | 38.9 | 608 | 122 | O=C(NCCCNCCCCCCCCCCNCCCNC(=O)c1cccc2ccccc12)c1cccc2ccccc12.O=C(O)C(F)(F)F.O=C(O)C(F)(F)F [Compound 17e, N^1,N^10-Bis(3-(1-naphthamido)propyl)decane-1,10-diaminium 2,2,2-trifluoroacetate] | 4.63 | >38.9 | 5 | 1 | MIC ([2]; MRSA (ATCC 43300), mean (n = 2)): 9.72 µM |
| 25 | 0.29 | 300 | 100 | > 37.6 | 0.29 | > 37.6 | 0.29 | 300 | 50 | O=C(NCCCNCCCCCCCCCCCCNCCCNC(=O)c1cccc2ccccc12)c1cccc2ccccc12.O=C(O)C(F)(F)F.O=C(O)C(F)(F)F [Compound 17f, N^1,N^12-Bis(3-(1-naphthamido)propyl)dodecane-1,12-diaminium 2,2,2-trifluoroacetate] | < 4.42 | >37.6 | 2 | 1 |  |
| 568 | > 36.3 | 568 | 568 | > 36.3 | > 36.3 | > 36.3 | > 36.3 | 568 | 568 | O=C(CCC(=O)Nc1cccc2ccccc12)NCCCNCCCCNCCCNC(=O)CCC(=O)Nc1cccc2ccccc12.O=C(O)C(F)(F)F.O=C(O)C(F)(F)F [Compound 18a, N^1,N^4-Bis(3-(4-(naphthalen-1-ylamino)-4-oxobutanamido)propyl)butane-1,4-diaminium 2,2,2-trifluoroacetate] |  |  | 1 | 1 |  |
| > 200 | > 35.2 | > 200 | > 200 | > 35.2 | > 35.2 | > 35.2 | > 35.2 | 100 | 200 | O=C(CCC(=O)Nc1cccc2ccccc12)NCCCNCCCCCCNCCCNC(=O)CCC(=O)Nc1cccc2ccccc12.O=C(O)C(F)(F)F.O=C(O)C(F)(F)F [Compound 18b, N^1,N^6-Bis(3-(4-(naphthalen-1-ylamino)-4-oxobutanamido)propyl)hexane-1,6-diaminium 2,2,2-trifluoroacetate] | < 4.45 | >35.2 | 1 | > 2 |  |
| 57 | 18.2 | 568 | 227 | > 36.3 | > 36.3 | > 36.3 | > 36.3 | 28 |  | O=C(CCC(=O)Nc1ccc2ccccc2c1)NCCCNCCCCNCCCNC(=O)CCC(=O)Nc1ccc2ccccc2c1.O=C(O)C(F)(F)F.O=C(O)C(F)(F)F [Compound 20a, N^1,N^4-Bis(3-(4-(naphthalen-2-ylamino)-4-oxobutanamido)propyl)butane-1,4-diaminium 2,2,2-trifluoroacetate] | < 4.44 | >36.3 |  | 20 | Concentration of test compound required to restore doxycycline activity ([11]; doxycycline concentration 2 µg/mL): 28.4 µM; Concentration of test compound required to restore doxycycline activity ([11]; doxycycline concentration 4 µg/mL): 14.2 µM; Concentration of test compound required to restore doxycycline activity ([11]; doxycycline concentration 6 µg/mL): 14.2 µM; Concentration of test compound required to restore doxycycline activity ([11]; doxycycline concentration 8 µg/mL): 3.5 µM |

More lines, now with the values behind:

| SMILES | MIC [1] [µM] | MIC [2, 13] [µM] | MIC [3, 14] [µM] | MIC [4] [µM] | MIC [5] [µM] | MIC [6] [µM] | MIC [7] [µM] | MIC [8] [µM] | Dox/P.a: concentration required to restore doxycycline activity (combination MIC) [11] [µM] | Eryth/E.c: concentration required to restore erythromycin activity (combination MIC) [12] [µM] | pIC50 [9] | Hemolysis HC10 [10] [µM] | Eryth/E.c fold change [12] [fold] | Dox/P.a fold change [11] [fold] | other results |
| --- | --- | --- | --- | --- | --- | --- | --- | --- | --- | --- | --- | --- | --- | --- | --- |
| O=C(N[C@H](CO)[C@H](O)c1ccc([N+](=O)[O-])cc1)C(Cl)Cl [chloramphenicol, reference compound] | 1.5 to 3 (≈ 0.485 to 0.969 µg/mL) |  |  |  |  |  |  |  |  |  |  |  |  |  |  |
| C[C@H]1c2cccc(O)c2C(=O)C2=C(O)[C@]3(O)C(=O)C(C(N)=O)=C(O)[C@@H](N(C)C)[C@@H]3[C@@H](O)[C@@H]21 [doxycycline, reference compound] |  |  |  |  |  |  |  |  |  |  |  |  |  |  | MIC ([3]; antibiotic alone, P. aeruginosa, read-out: intrinsic MIC against P. aeruginosa): 40 µg/mL and 90 µM |
| OC(Cn1cncn1)(Cn1cncn1)c1ccc(F)cc1F [fluconazole, reference compound] |  |  |  |  |  |  | 0.4 (≈ 0.123 µg/mL) | 26 (≈ 7.96 µg/mL) |  |  |  |  |  |  |  |
| [H]/N=C(/N)N[C@H]1[C@H](O)[C@@H](O)[C@H](O[C@@H]2O[C@@H](C)[C@](O)(C=O)[C@H]2O[C@@H]2O[C@@H](CO)[C@H](O)[C@@H](O)[C@@H]2NC)[C@@H](N/C(N)=N\[H])[C@@H]1O [streptomycin, reference compound] | 21.5 (≈ 12.5 µg/mL) |  | 21.5 (≈ 12.5 µg/mL) |  |  |  |  |  |  |  |  |  |  |  |  |
| CC/C(=C(\c1ccccc1)c1ccc(OCCN(C)C)cc1)c1ccccc1 [tamoxifen, reference compound] |  |  |  |  |  |  |  |  |  |  | 4.62 |  |  |  |  |
| CN[C@H](CC(C)C)C(=O)N[C@H]1C(=O)N[C@@H](CC(N)=O)C(=O)N[C@H]2C(=O)N[C@H]3C(=O)N[C@H](C(=O)N[C@H](C(=O)O)c4cc(O)cc(O)c4-c4cc3ccc4O)[C@H](O)c3ccc(c(Cl)c3)Oc3cc2cc(c3O[C@@H]2O[C@H](CO)[C@@H](O)[C@H](O)[C@H]2O[C@H]2C[C@](C)(N)[C@H](O)[C@H](C)O2)Oc2ccc(cc2Cl)[C@H]1O [vancomycin, reference compound] |  |  |  |  |  |  |  |  |  |  |  |  |  |  | MIC ([2]; Staphylococcus aureus): 0.7 µM (≈ 1.01 µg/mL) |
